test system: Mythimna separata; assay: Efficacy test against Mythimna separata (artificial feed mixed with emulsion); conditions: in vivo
Description: Five parts of the (hetero)aryl sulfonamide compound of the present invention, 93.6 parts of dimethylformamide and 1.4 parts of a polyoxyethylene alkyl aryl ether were mixed together and dissolved to obtain an emulsion (I) containing 5% of the active ingredient.
For the control, 93.6 parts of dimethylformamide and 1.4 parts of a polyoxyethylene alkyl aryl ether were mixed together and dissolved to obtain an emulsion (II).
Insect mortality rate(%)=(number of dead insects/number of test insects)×100 Nematode mortality rate(%)=(number of dead nematodes/number of test nematodes)×100
First, 0.8 g of a commercially-available artificial feed (Insecta LFS, manufactured by Nosan Corporation) and 1 μl of the emulsion (I) were mixed well, and thereby, a test feed was obtained. Subsequently, 0.2 g of the test feed was placed in each of the treatment areas of a plastic test container (volume: 1.4 ml). Subsequently, two second-instar larvae of Mythimna separata were inoculated into each treatment area, and a plastic lid was placed on the test container to prevent the larvae from escaping. The closed container was placed in a thermostatic chamber at 25° C. On the 5th day therefrom, the insect mortality rate and the amount of feed consumed were checked. The test was repeated.
In addition, for a control area, the insect mortality rate and the amount of feed consumed were checked in the same manner as that described in Test Example 1, with the exception of replacing the emulsion (I) with the emulsion (II).

Row | Compound | insect mortality rate against Mythimna separata
1 | O=S(=O)(Nc1cc(C(F)(F)F)ccc1-c1nc2cc(Cl)c(Cl)cc2[nH]1)C(F)(F)F [Compound 2-3] | 100%
2 | O=S(=O)(N(c1cc(C(F)(F)F)ccc1-c1nc2cc(C(F)(F)F)ccc2[nH]1)S(=O)(=O)C(F)(F)F)C(F)(F)F [Compound 2-5] | 100%
3 | O=S(=O)(Nc1cc(C(F)(F)F)ccc1-c1nc2cc(C(F)(F)F)ccc2[nH]1)C(F)(F)F [Compound 2-6] | 100%
4 | O=S(=O)(Nc1cc(C(F)(F)F)ccc1-c1nc2cc(F)c(F)cc2[nH]1)C(F)(F)F [Compound 2-8] | 100%
5 | O=S(=O)(Nc1cc(F)c(F)cc1-c1nc2cc(F)c(F)cc2[nH]1)C(F)(F)F [Compound 2-9] | 100%
6 | CCS(=O)(=O)Nc1cc(C(F)(F)F)ccc1-c1nc2cc(F)c(F)cc2[nH]1 [Compound 2-14] | 100%
7 | O=S(=O)(Nc1cc(C(F)(F)F)ccc1-n1cnc(-c2ccc(Br)cc2)n1)C(F)(F)F [Compound 2-15] | 100%
8 | O=S(=O)(Nc1cc(C(F)(F)F)ccc1-n1cc(-c2ccc(Cl)cc2)cn1)C(F)(F)F [Compound 2-16] | 100%
9 | CCS(=O)(=O)Nc1cc(C(F)(F)F)ccc1-n1cnc(-c2ccc(Br)cc2)n1 [Compound 2-17] | 100%
10 | O=S(=O)(Nc1cc(C(F)(F)F)ccc1-n1ccc(-c2ccc(Cl)cc2)n1)C(F)(F)F [Compound 2-18] | 100%
11 | O=S(=O)(Nc1cc(C(F)(F)F)ccc1-n1ccc(-c2ccc(C(F)(F)F)cc2)n1)C(F)(F)F [Compound 2-22] | 100%
12 | O=S(=O)(Nc1cc(C(F)(F)F)ccc1-c1nc(-c2ccc(Cl)cc2)no1)C(F)(F)F [Compound 2-25] | 100%
13 | O=S(=O)(Nc1cc(C(F)(F)F)ccc1-c1ccc(C(F)(F)F)cn1)C(F)(F)F [Compound 2-36] | 100%
14 | O=S(=O)(CC(F)(F)F)Nc1cc(C(F)(F)F)cnc1-n1ccc(C(F)(F)F)n1 [Compound 3-8] | 100%
15 | Cc1c(Br)c(C(F)(F)F)nn1-c1ncc(C(F)(F)F)cc1NS(=O)(=O)C(F)(F)F [Compound 3-46] | 100%
16 | O=S(=O)(Nc1cc(C(F)(F)F)cnc1-c1cccc(C(F)(F)F)n1)C(F)(F)F [Compound 3-47] | 100%

— patent publication US20210139453A1, “(HETERO)ARYL SULFONAMIDE COMPOUND AND FORMULATION FOR CONTROLLING HARMFUL ORGANISMS” (Nippon Soda Co., Ltd., priority 2018, published 2021)
